Patent US12371432B2, “Haloallylamine compounds and application thereof” (TransThera Sciences (Nanjing), Inc., priority 2019, dated 2025)
Counter-ions that a name gives are not always drawn. Like-named read-outs stand apart in the source and are kept apart here.

Columns and labels:
rhVAP-1 = biological target: T1, rhVAP-1 (Homo sapiens, UniProt Q16853); experiment: Inhibitory activity against rhVAP-1 enzyme (Biological Example 2); type: biochemical; conditions: Table 2; benzylamine substrate, Amplex Red/HRP
T1 construct: purchased PeproTech
T1 sequence (Q16853 27-763 limits assumed): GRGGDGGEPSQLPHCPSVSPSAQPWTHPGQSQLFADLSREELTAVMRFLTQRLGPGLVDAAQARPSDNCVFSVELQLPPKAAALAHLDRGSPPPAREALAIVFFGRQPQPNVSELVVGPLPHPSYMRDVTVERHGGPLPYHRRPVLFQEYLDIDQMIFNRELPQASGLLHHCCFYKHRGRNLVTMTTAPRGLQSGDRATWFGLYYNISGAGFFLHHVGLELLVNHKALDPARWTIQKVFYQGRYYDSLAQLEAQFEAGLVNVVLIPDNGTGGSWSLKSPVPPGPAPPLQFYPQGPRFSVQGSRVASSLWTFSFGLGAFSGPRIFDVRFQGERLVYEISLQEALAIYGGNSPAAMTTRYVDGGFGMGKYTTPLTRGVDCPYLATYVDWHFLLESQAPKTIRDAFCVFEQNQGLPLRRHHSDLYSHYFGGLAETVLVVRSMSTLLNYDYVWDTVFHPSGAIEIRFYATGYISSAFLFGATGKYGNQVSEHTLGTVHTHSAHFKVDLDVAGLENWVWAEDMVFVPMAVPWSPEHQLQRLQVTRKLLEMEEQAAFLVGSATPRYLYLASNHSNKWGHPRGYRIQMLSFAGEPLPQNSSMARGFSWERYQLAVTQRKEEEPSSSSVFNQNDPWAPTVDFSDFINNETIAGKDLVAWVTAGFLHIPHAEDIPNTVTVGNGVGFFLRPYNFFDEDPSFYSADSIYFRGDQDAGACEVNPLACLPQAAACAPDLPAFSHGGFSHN
Procedure: 1. Inhibitory Activity of Compounds Against rhVAP-1 Enzyme
(§1) (1) Instrument, Consumable and Reagent
Microplate reader (Perkin Elmer, Nivo 5S), black unclear-bottom 96-well plate (Corning) and rhVAP-1 (PeproTech)
(§2) (2) Preparation of Concentration Gradient Compound Solutions
(§3) An appropriate amount of the compound to be tested was taken, dissolved in DMSO to 10 mM and then stored. Before the study, an appropriate amount of mother liquor of the 10 mM compound to be tested was taken and gradiently diluted 3-fold with DMSO, 10 concentration gradients in total. Each concentration gradient was then diluted 100-fold with 0.1 M of PBS.
(§4) (3) Preparation of Enzyme Solutions
An appropriate amount of protein diluent was added into rhVAP-1 powder, obtaining 1 mg/mL of mother liquor for storage. Before the study, PBS was used to carry out dilution to obtain enzyme solutions of 4× concentrations.
(§5) (4) Preparation of Substrate Mixtures of 2× Concentrations
(§6) An appropriate amount of benzylamine was weighed and dissolved with PBS to obtain 200 mM of benzylamine solution. The benzylamine solution was added with 2 mM of Amplex Red mother liquor and 500 U/mL of HRP mother liquor and diluted with PBS to obtain substrate mixtures of 2× concentrations.
(§7) 10 μL compound solutions of different concentrations, 25 μL rhVAP-1 enzyme solutions of 4× concentrations and 15 μL of PBS were first added into a 96-well plate, shaken to be mixed uniformly and then incubated at 37° C. for 30 min. 50 μL substrate mixtures of 2× concentrations were then added into each well, and the microplate reader was immediately used to perform detection with 580 nm (20 nm) exciting light and 620 nm (10 nm) emission light for 5 min each time, 30 min in total. The inhibition rate was calculated according to the following formula: V (RFU/min)=(Ft (RFU)−F0 (RFU))/(time(min)) Inhibition rate (%)=100%−Vcmpd (RFU/min)/Vmax (RFU/min)×100%
(§8) V: fluorescence change rate; Ft: fluorescence reading at time point t; F0: initial fluorescence reading; Time: duration t; Vcmpd: fluorescence change rate of tested compound; Vmax: Max hole fluorescence change rate.
(§9) (6) Fitting of Dose-Response Curve
(§10) With the log value of concentration as the X axis and the percent inhibition rate as the Y axis, the log (inhibitor) vs. response-variable slope of analysis software GraphPad Prism 5 was used to fit a dose-response curve, thus obtaining the IC50 value of activity of each compound against the enzyme.

rhAOC1 = biological target: T2, rhAOC1 (Homo sapiens, UniProt P19801); experiment: Selectivity against rhAOC1 enzyme (Biological Example 2); type: biochemical; conditions: Table 2; histamine substrate, Amplex Red/HRP
T2 construct: purchased R&D
T2 sequence (P19801 20-751): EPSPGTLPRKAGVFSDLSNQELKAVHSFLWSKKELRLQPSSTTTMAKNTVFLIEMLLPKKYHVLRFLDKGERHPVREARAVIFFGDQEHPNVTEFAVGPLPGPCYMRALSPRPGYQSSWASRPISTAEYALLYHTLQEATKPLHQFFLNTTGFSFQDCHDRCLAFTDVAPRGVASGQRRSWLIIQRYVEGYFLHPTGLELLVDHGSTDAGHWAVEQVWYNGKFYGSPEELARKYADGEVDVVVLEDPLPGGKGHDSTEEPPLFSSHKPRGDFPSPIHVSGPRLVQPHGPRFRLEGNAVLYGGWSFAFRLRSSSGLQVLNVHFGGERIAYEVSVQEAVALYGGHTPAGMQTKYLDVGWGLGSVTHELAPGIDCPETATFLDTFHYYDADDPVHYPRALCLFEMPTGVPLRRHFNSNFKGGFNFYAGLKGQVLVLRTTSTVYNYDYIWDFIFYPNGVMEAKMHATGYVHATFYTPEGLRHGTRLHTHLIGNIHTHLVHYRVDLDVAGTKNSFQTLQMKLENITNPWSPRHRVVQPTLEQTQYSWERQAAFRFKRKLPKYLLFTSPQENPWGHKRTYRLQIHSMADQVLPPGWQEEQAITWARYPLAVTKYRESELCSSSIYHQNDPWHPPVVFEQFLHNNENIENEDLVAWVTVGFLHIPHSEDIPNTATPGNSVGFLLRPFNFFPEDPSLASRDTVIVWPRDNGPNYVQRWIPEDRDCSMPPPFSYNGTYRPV
Procedure: 2. Selectivity of Compounds Against rhAOC1 Enzyme
as §1
Microplate reader (Perkin Elmer, Nivo 5S), black unclear-bottom 96-well plate (Corning) and rhAOC1 (R&D)
as §2
as §3, with “10-fold” for “100-fold”
as §4
An appropriate amount of rhAOC1 mother liquor with a concentration of 0.441 mg/mL was taken and diluted with an appropriate amount of 50 mM HEPES buffer solution to obtain enzyme solutions of 4× concentrations.
as §5
as §6, with “histamine” for “benzylamine”, “50 mM of HEPES buffer solution” for “PBS”, “20” for “200”
as §7, with “rhAOC1” for “rhVAP-1”, “50 mM HEPES buffer solution” for “PBS”, “detect fluorescence intensity of each well” for “perform detection”
as §8, §9, §10

[1] = Rat blood-brain barrier evaluation; type: in vivo; conditions: rat, oral, SD rats, intragastric 10 mg/kg
Procedure: (1) Animal Administration and Sampling Method:
The study compound A1, the compound A41 and PXS-4728 were dissolved in normal saline to prepare solutions. The prepared solutions were separately administered by intragastric administration to SD rats at a dose of 10 mg/kg. […] At each time point, samples were collected from three SD rats.
On the day of the study, the animals were fixed to collect 0.15 mL of blood from the jugular vein at each set time point, and the whole blood samples were put into anticoagulation tubes containing EDTA-K2. After blood sampling was completed, heart perfusion was immediately performed for the animals, and following the heart perfusion, brain tissue samples were collected.
After the whole blood samples were centrifuged under the condition of 1,524 g for 10 min, top plasma samples were collected into sample tubes. The tissue samples were weighed, added with 20% of aqueous methanol solution at a weight-to-volume ratio of 1:5 (tissue:homogenate) and homogenized. The biological samples were stored at −40° C. to −20° C. for analysis.
(4) Sample Analysis Method:
(§11) Plasma sample: The samples to be tested were taken out of the refrigerator, naturally thawed at room temperature and then swirled for 5 min, and 20 μL of plasma sample was accurately pipetted into 1.5 mL centrifuge tubes. 100 μL of internal standard working solution (solution of 5 ng/mL verapamil and 50 ng/mL glibenclamide in acetonitrile) was added, and uniform mixing was performed. After 1 min of swirling, centrifugation was performed at 13,000 rpm for 8 min. 40 μL of supernate was accurately pipetted into a 96-well plate added with 160 μL water/well in advance. Uniform mixing was performed by swirling for 10 min, followed by LC-MS/MS assay.
as §11, with “Brain tissue” for “Plasma”, “50” for “20”, “250” for “100”, “30” for “40”, “150” for “160”
(5) Data Processing Method:
Analyst 1.6.2 from AB Sciex was used to output concentration results of tested compounds. Microsoft Excel was used to calculate parameters such as mean value, standard deviation and variation coefficient (excluding those outputted directly by Analyst 1.6.2).

IC50 (rhVAP-1)	IC50 (rhAOC1)	concentration at 0.167 h ([1]; brain, 0.167 h, read-out: Average Brain tissue concentration (N=3))	concentration at 1 h ([1]; brain, 1 h, read-out: Average Brain tissue concentration (N=3))	concentration at 6 h ([1]; brain, 6 h, read-out: Average Brain tissue concentration (N=3))	Kp at 0.167 h ([1]; brain/plasma, 0.167 h, read-out: Mean brain tissue/plasma concentration ratio)	Kp at 1 h ([1]; brain/plasma, 1 h, read-out: Mean brain tissue/plasma concentration ratio)	Kp at 6 h ([1]; brain/plasma, 6 h, read-out: Mean brain tissue/plasma concentration ratio)	concentration at 0.167 h ([1]; plasma, 0.167 h, read-out: Average Plasma concentration (N=3))	concentration at 1 h ([1]; plasma, 1 h, read-out: Average Plasma concentration (N=3))	concentration at 6 h ([1]; plasma, 6 h, read-out: Average Plasma concentration (N=3))	SMILES
50 nM	13.1 µM										COC1CCN(C(=O)c2ccc3c(ccn3C/C(=C/F)CN)c2)CC1 [Compound C14 hydrochloride, (E)-(1-(2-(aminomethyl)-3-fluoroallyl)-1H-indol-5-yl)(4-methoxypiperidin-1-yl)methanone]
63 nM	8.38 µM										COC1(C)CCN(C(=O)c2ccc3c(ccn3C/C(=C/F)CN)c2)CC1 [Compound C15 hydrochloride, (E)-(1-(2-(aminomethyl)-3-fluoroallyl)-1H-indol-5-yl)(4-methoxy-4-methylpiperidin-1-yl)methanone]
		337 ng/g	1400 ng/g	311 ng/g	0.89	1.34	1.89	373 ng/mL	1040 ng/mL	175 ng/mL	CC(C)(C)NC(=O)c1ccc(OC/C(=C/F)CN)cc1 [PXS-4728, reference compound]
